Where “and” joins values, the source holds several entries; their conditions need not be identical. Identical values can stand only once.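 Grown in 96-well plates, cells were treated for 48 hours with each compound at five concentrations. Insufficient inhibition: endpoint recorded as highest concentration tested. Here, GI50 denotes the concentration required for 50% inhibition of growth. TGI denotes the concentration required for complete inhibition of growth.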

What all share (assay): NCI-60 cell line screen, 48 h
Assay [1] relates to CCRF-CEM leukemia.
Assay [2] deals with TK-10 renal.
Assay [3] relates to SF-295 CNS.
Assay [4] has as its system EKVX NSCLC.
Assay [5] relates to HT29 colon.
Assay [6] deals with HCC-2998 colon.
For assay [7], the system named is IGROV1 ovarian.
For assay [8], the system named is SF-268 CNS.
The test system of assay [9] is SF-539 CNS.
In assay [10] the test system is SK-MEL-2 melanoma.

Regarding `NC1=NS(=O)(=O)N=C(N)C1=Cc1ccc([N+](=O)[O-])o1`, the TGI in assay [1] is 92.8 µM; in assay [2] it was 32.6 µM; in assay [3], 61.8 µM; in assay [4] it was 32.5 µM; in assay [5] it was 34 µM; in [6] it was 45.8 µM. Also, the TGI in assay [7] is 32.1 µM; in assay [8], 31.3 µM; in [9], 32.3 µM; in assay [10] it was 30.9 µM.
Regarding `CC1(C)OC[C@@H](/C=C\CCO[Si](c2ccccc2)(c2ccccc2)C(C)(C)C)N1C(=O)c1ccccc1`, the TGI in assay [1] is 59.7 µM; in assay [2], > 100 µM; in assay [3], > 100 µM; in assay [4], 25.8 µM; in [5], 17.3 µM; in assay [6], 21.4 µM. The TGI is > 100 µM in [7], 81.4 µM in assay [8], 45.4 µM in assay [9] and 19.6 µM in assay [10].
Regarding `Oc1ccc2ccccc2c1-c1nnc(CCCCCCCCc2nnc(-c3c(O)ccc4ccccc34)o2)o1`, the TGI is > 60.3 µM in assay [1]; > 100 µM in [2]; 25 µM and > 93.6 µM in [3]; 25 µM and > 100 µM in assay [4]; 11.9 µM and > 62.1 µM in [6]; 25 µM and 98.6 µM in [7]. In addition, the TGI in assay [8] was > 100 µM; in [9] it was 16.4 µM; in assay [10], 25 µM and > 100 µM. The GI50 was > 25 µM in [2]; 2.83 µM in assay [3]; 6.7 µM in assay [4]; 0.36 µM in assay [5]; 5.04 µM in [6]; 11.6 µM in assay [7]. Also, in assay [10], the GI50 was 4.88 µM.
Consider `N#Cc1c(=O)c2cccnc2n2c1[nH]c1ccccc12`, for which the TGI in assay [1], in assay [2], in assay [3], in [4], in [5] and in assay [6] was > 100 µM each time. Moreover, the TGI in [7], in assay [8], in assay [9] and in assay [10] was > 100 µM in each case.
On to `CCCCCCCCCCCCCCCCP(=O)(O)OP(=O)(O)OCC1OC(n2ccc(N)nc2=O)C(O)C1O` (stereo not given), for which the TGI in assay [1] is > 100 µM and 21.4 µM; in [2] it was > 100 µM; in assay [3], > 100 µM and 56.5 µM; in [4], > 100 µM; in [5], > 100 µM; in assay [6] it was > 100 µM and 91.2 µM. For the same molecule, the TGI in [7] was > 100 µM; in assay [8] it was > 100 µM; in assay [9], 36.3 µM and 88.6 µM; in assay [10] it was > 100 µM. Besides, the GI50 in assay [3] was 43 µM and 20.5 µM; in assay [5], > 100 µM and 19.9 µM; in [6], 99.7 µM and 17 µM; in assay [7] it was 62.4 µM and 26 µM; in [8] it was 83.3 µM and 41.4 µM.
In the case of `C=CCc1c(O)c2ccccc2[nH]c1=O`, the TGI in [1], in assay [2], in assay [3], in assay [4], in assay [5] and in assay [6] was > 100 µM throughout. The TGI in [7] and in [9] was > 100 µM throughout.
With `O=C1CSC2(CC(/C=C/C=C/c3ccccc3)=NN2c2cccc(S(=O)(=O)O)c2)N1c1nc2ccccc2s1` (stereo not given), the TGI was 58.4 µM in [1]; > 100 µM in assay [2]; > 100 µM in [4]; > 100 µM in assay [5]; > 100 µM in assay [6]; > 100 µM in assay [7]. Further, the TGI in [9] and in assay [10] was > 100 µM in each case.
`CSc1c(C(C)=O)c(O)n(-c2ccc(Cl)cc2)c(=O)c1C#N`: the TGI in [1] was 54.3 µM; in assay [2], > 100 µM; in assay [4] it was > 100 µM; in assay [5], > 100 µM; in assay [6], > 100 µM; in [8], > 100 µM. The TGI in assay [9] and in assay [10] was > 100 µM throughout.
In the case of `CC(=O)N(C(C)=O)n1c(Cc2ccc(Cl)cc2)nn(C(C)=O)c1=O`, the TGI in assay [1], in assay [2], in [3], in assay [4], in assay [5] and in assay [6] was > 100 µM each time. Also, the TGI in assay [7], in assay [8], in [9] and in [10] was > 100 µM throughout.
In the case of `CCCCCCCCCCCCC(=O)NCC(=O)NC(Cc1ccccc1)C(=O)Oc1ccc([N+](=O)[O-])cc1` (stereo not given), the TGI in assay [1] is 68.7 µM; in assay [2], > 100 µM; in assay [3], > 100 µM; in assay [4] it was > 100 µM; in assay [5], > 100 µM; in assay [6], > 100 µM. The TGI in [7], in assay [8], in assay [9] and in [10] was > 100 µM throughout.
Turning to `CCCCn1cc(C(=O)O)c(=O)c2c3sccc3ccc21`, the TGI in [1], in assay [2], in [3], in assay [4], in [5] and in assay [6] was > 100 µM in each case. Besides, the TGI in [7], in assay [8], in [9] and in [10] was > 100 µM in each case.
Take `O=C1/C(=C/c2ccccc2S)N=C(c2ccccc2)N1c1ccc2c(c1)Sc1cc(N3C(=O)/C(=C/c4ccccc4S)N=C3c3ccccc3)ccc1N2`: the TGI in assay [1] is 33.3 µM; in assay [2], 31.3 µM; in assay [3], 39.9 µM; in [4], 41.6 µM; in assay [5] it was > 100 µM; in assay [6], 37.1 µM. Further, the TGI was 29.1 µM in assay [7], 39.6 µM in assay [8], 24.1 µM in [9] and 44.8 µM in assay [10].

(Values after PubChem BioAssay (NCI).)
